Results taken from patent publication US6528618B1, “Anti-inflammatory peptides derived from C-reactive protein” (Yeda Research and Development Co. Ltd., priority 1997, dated 2003).
Entries after “also recorded” stand apart in the source; their conditions may differ. Where a SMILES comes first, the peptide text is derived from it.

Experiments:
[1] = molecular target: T1, human leukocyte elastase (hLE) (Homo sapiens, UniProt P08246); assay: In vitro inhibition of hLE (cleavage of MeOSuc-AAPV-NA); format: biochemical
T1 construct: Neutrophils (1.4 billion) were isolated from whole blood obtained from a single healthy laboratory donor; from tissue; host or cells: neutrophils from whole blood of a single healthy donor
T1 sequence (P08246 30-247 limits assumed): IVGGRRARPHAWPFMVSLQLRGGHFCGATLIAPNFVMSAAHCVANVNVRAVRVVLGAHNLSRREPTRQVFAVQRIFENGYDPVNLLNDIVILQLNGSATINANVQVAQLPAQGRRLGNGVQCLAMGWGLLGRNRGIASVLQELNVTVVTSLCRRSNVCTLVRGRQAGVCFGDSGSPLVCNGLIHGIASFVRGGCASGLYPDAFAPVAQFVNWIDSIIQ
Description: (§1) The enzymatic activity was assayed with MeOSuc-AAPV-NA for hLE determination and Suc-AAPF-NA for hCG determination (both in 100 mM Hepes buffer, pH 7.4, containing 0.05% of the […] detergent Brij-35). The activities of the individual enzymatic fractions were 100% free from cross-contamination. […] The fractions containing hLE and hCG were dialyzed each against 0.1% pyridinium acetate, pH 5.3, divided into 20 aliquots, lyophilized, and stored at −20 ° C. until use.
(v) Inhibition experiments with hLE: Peptides were dissolved in 100 mM Hepes buffer pH 7.4 containing 0.1% Brij-35 with 10%. DMSO to yield 300 μM solutions, which were used to make further dilutions with the same buffer, and 80 μL aliquots were added in duplicates to 96-well plates. The substrate, 600 μM MeOSuc-AAPV-NA in the same buffer with 5% DMSO, was added to each well in addition to the blank wells, and the plate was placed in the plate reader equilibrated to 37 C (Dynateck MR-6000). Lyophilized aliquots of hLE were dissolved in 1600 μL of 100 mM Hepes buffer without DMSO, and 80 μL of the enzyme solution was added to the peptides and substrate to initiate the reaction. […] The final volume was 240 μL containing: 5% DMSO, 1-100 μM of peptide, 200 μM substrate, and 0.75 μg (˜25 picomol) enzyme.
(viii) Calculations: For hLE, V is determined by fitting a linear equation to the first 6 time-points (10 min) of the kinetics data using the least squares method. […] Several inhibitor concentration in duplicates and two control wells were used to fit a linear equation to graphs of Vo/Vi−1 vs. [I] for each inhibitor using the least squares method (8 data points for each inhibitor). From calculating the error in the slope of the equation, the relative error for Ki was deduced:
Ki={slope*(1+[S]/Km)}^−1because Ki=[I]*{(1+[S]/Km)*(Vo/Vi−1)}^−1.
The hLE inhibitory capability of CRP-derived peptides was evaluated by inhibiting the enzymatic cleavage of MeOSuc-AAPV-NA as described in Materials and Methods (section v).

[2] = molecular target: T2, human leukocyte cathepsin G (hCG) (Homo sapiens, UniProt P08311); assay: In vitro inhibition of hCG (cleavage of Suc-AAPF-NA); format: biochemical
T2 construct: Neutrophils (1.4 billion) were isolated from whole blood obtained from a single healthy laboratory donor; from tissue; host or cells: neutrophils from whole blood of a single healthy donor
T2 sequence (P08311 21-243 limits assumed): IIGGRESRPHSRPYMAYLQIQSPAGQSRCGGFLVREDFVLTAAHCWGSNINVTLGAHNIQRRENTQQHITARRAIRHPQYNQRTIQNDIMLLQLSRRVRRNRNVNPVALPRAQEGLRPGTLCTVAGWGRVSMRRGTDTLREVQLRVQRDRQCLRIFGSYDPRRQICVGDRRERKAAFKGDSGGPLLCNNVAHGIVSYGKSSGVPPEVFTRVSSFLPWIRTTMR
Description: as §1
vi) Inhibition experiments with hCG: Similar conditions to hLE inhibition experiments were used except the substrate: 80 μL of 1.80 mM Suc-AAPF-NA. The enzyme was dissolved in 800 μL buffer, and the reaction was monitored every 6 min for 1 hour. The final volume was 240 μL containing: 5% DMSO, 1-100 μM peptide, 600 μM substrate, and 1.2 μg enzyme (about 40 picomol).
For hCG, V is determined by fitting a quadratic equation to the total kinetic data (60 min), using the least squares method and calculating V at t=0.
The hCG inhibitory capability of CRP-derived peptides was evaluated by inhibiting the enzymatic cleavage of Suc-AAPF-NA as described in Materials and Methods (section vi).

[3] = hLE Ki [μM], Table 1, substrate MeOSuc-AAPV-NA 200 μM, pH 7.4, 37 C
[4] = hCG Ki [μM], Table 1, substrate Suc-AAPF-NA 600 μM, pH 7.4

Structure (SMILES) | Ki [1, 3] | Ki [2, 4] | hLE inhibitory activity (in words) [1] | other results
CC[C@H](C)[C@H](NC(=O)[C@H](CO)NC(=O)[C@H](Cc1ccc(O)cc1)NC(=O)CNC(=O)[C@H](CCCNC(=N)N)NC(=O)[C@@H](NC(=O)[C@H](CO)NC(=O)[C@H](CO)NC(=O)[C@H](CC(C)C)NC(=O)[C@H](CCC(=O)O)NC(=O)[C@@H](NC(=O)[C@H](Cc1ccc(O)cc1)NC(=O)[C@H](Cc1ccccc1)NC(=O)[C@H](Cc1c[nH]cn1)NC(=O)[C@@H](N)CC(C)C)[C@@H](C)O)[C@@H](C)O)C(=O)O [Peptide 1, Leu-His-Phe-Tyr-Thr-Glu-Leu-Ser-Ser-Thr-Arg-Gly-Tyr-Ser-Ile] (H-LHFYTELSSTRGYSI-OH) | > 200 µM | > 200 µM | – | –
CC[C@H](C)[C@H](NC(=O)[C@H](CO)NC(=O)[C@H](Cc1ccc(O)cc1)NC(=O)CNC(=O)[C@H](CCCNC(=N)N)NC(=O)[C@@H](NC(=O)[C@H](CO)NC(=O)[C@H](CO)NC(=O)[C@H](CC(C)C)NC(=O)[C@@H](N)CCC(=O)O)[C@@H](C)O)C(=O)N[C@@H](Cc1ccccc1)C(=O)N[C@@H](CO)C(=O)N[C@@H](Cc1ccc(O)cc1)C(=O)N[C@@H](C)C(=O)N[C@H](C(=O)O)[C@@H](C)O [Peptide 2, Glu-Leu-Ser-Ser-Thr-Arg-Gly-Tyr-Ser-Ile-Phe-Ser-Tyr-Ala-Thr] (H-ELSSTRGYSIFSYAT-OH) | > 200 µM | > 200 µM | – | –
CC[C@H](C)[C@H](NC(=O)[C@H](CO)NC(=O)[C@H](Cc1ccc(O)cc1)NC(=O)CNC(=O)[C@@H](N)CCCNC(=N)N)C(=O)N[C@@H](Cc1ccccc1)C(=O)N[C@@H](CO)C(=O)N[C@@H](Cc1ccc(O)cc1)C(=O)N[C@@H](C)C(=O)N[C@H](C(=O)N[C@@H](CCCCN)C(=O)N[C@@H](CCCNC(=N)N)C(=O)N[C@@H](CCC(N)=O)C(=O)N[C@@H](CC(=O)O)C(=O)N[C@@H](CC(N)=O)C(=O)O)[C@@H](C)O [Peptide 3, Arg-Gly-Tyr-Ser-Ile-Phe-Ser-Tyr-Ala-Thr-Lys-Arg-Gln-Asp-Asn] (H-RGYSIFSYATKRQDN-OH) | > 200 µM | > 200 µM | – | –
CC[C@H](C)[C@H](NC(=O)[C@H](CC(C)C)NC(=O)[C@@H](NC(=O)[C@H](CCC(=O)O)NC(=O)[C@H](CC(N)=O)NC(=O)[C@H](CC(=O)O)NC(=O)[C@H](CCC(N)=O)NC(=O)[C@H](CCCNC(=N)N)NC(=O)[C@H](CCCCN)NC(=O)[C@@H](NC(=O)[C@H](C)NC(=O)[C@H](Cc1ccc(O)cc1)NC(=O)[C@H](CO)NC(=O)[C@@H](N)Cc1ccccc1)[C@@H](C)O)[C@@H](C)CC)C(=O)N[C@@H](Cc1ccccc1)C(=O)O [Peptide 4, Phe-Ser-Tyr-Ala-Thr-Lys-Arg-Gln-Asp-Asn-Glu-Ile-Leu-Ile-Phe] (H-FSYATKRQDNEILIF-OH) | > 200 µM | > 200 µM | – | –
CC[C@H](C)[C@H](NC(=O)[C@H](CC(=O)O)NC(=O)[C@H](CCCCN)NC(=O)[C@H](CO)NC(=O)[C@H](Cc1c[nH]c2ccccc12)NC(=O)[C@H](Cc1ccccc1)NC(=O)[C@@H](NC(=O)[C@H](CC(C)C)NC(=O)[C@@H](NC(=O)[C@H](CCC(=O)O)NC(=O)[C@H](CC(N)=O)NC(=O)[C@H](CC(=O)O)NC(=O)[C@H](CCC(N)=O)NC(=O)[C@H](CCCNC(=N)N)NC(=O)[C@@H](N)CCCCN)[C@@H](C)CC)[C@@H](C)CC)C(=O)O [Peptide 5, Lys-Arg-Gln-Asp-Asn-Glu-Ile-Leu-Ile-Phe-Trp-Ser-Lys-Asp-Ile] (H-KRQDNEILIFWSKDI-OH; N-terminus and C-terminus assumed) | – | – | two orders of magnitude less potent than peptide 6; also recorded: lowered the inhibitory capability by more than one order of magnitude | Ki ([1]; hLE inhibitory activity range): 50 to 100 µM; Ki ([2]; hCG inhibitory activity range): 150 to 200 µM
CC[C@H](C)[C@H](NC(=O)[C@H](CC(=O)O)NC(=O)[C@H](CCCCN)NC(=O)[C@H](CO)NC(=O)[C@@H](N)Cc1c[nH]c2ccccc12)C(=O)NCC(=O)N[C@@H](Cc1ccc(O)cc1)C(=O)N[C@@H](CO)C(=O)N[C@@H](Cc1ccccc1)C(=O)N[C@H](C(=O)N[C@H](C(=O)NCC(=O)NCC(=O)N[C@@H](CO)C(=O)N[C@@H](CCC(=O)O)C(=O)O)C(C)C)[C@@H](C)O [Peptide 7, Trp-Ser-Lys-Asp-Ile-Gly-Tyr-Ser-Phe-Thr-Val-Gly-Gly-Ser-Glu] (H-WSKDIGYSFTVGGSE-OH) | > 200 µM | > 200 µM | – | –
CC[C@H](C)[C@H](NC(=O)[C@H](CCC(=O)O)NC(=O)[C@H](CO)NC(=O)CNC(=O)CNC(=O)[C@@H](NC(=O)[C@@H](NC(=O)[C@H](Cc1ccccc1)NC(=O)[C@H](CO)NC(=O)[C@H](Cc1ccc(O)cc1)NC(=O)CN)[C@@H](C)O)C(C)C)C(=O)N[C@@H](CC(C)C)C(=O)N[C@@H](Cc1ccccc1)C(=O)N[C@@H](CCC(=O)O)C(=O)N[C@H](C(=O)O)C(C)C [Peptide 8, Gly-Tyr-Ser-Phe-Thr-Val-Gly-Gly-Ser-Glu-Ile-Leu-Phe-Glu-Val] (H-GYSFTVGGSEILFEV-OH) | > 200 µM | > 200 µM | – | –
CC[C@H](C)[C@H](NC(=O)[C@H](CCC(=O)O)NC(=O)[C@H](CO)NC(=O)CNC(=O)CNC(=O)[C@@H](N)C(C)C)C(=O)N[C@@H](CC(C)C)C(=O)N[C@@H](Cc1ccccc1)C(=O)N[C@@H](CCC(=O)O)C(=O)N[C@H](C(=O)N1CCC[C@H]1C(=O)N[C@@H](CCC(=O)O)C(=O)N[C@H](C(=O)N[C@H](C(=O)N[C@H](C(=O)O)C(C)C)[C@@H](C)O)C(C)C)C(C)C [Peptide 9, Val-Gly-Gly-Ser-Glu-Ile-Leu-Phe-Glu-Val-Pro-Glu-Val-Thr-Val] (H-VGGSEILFEVPEVTV-OH) | > 200 µM | > 200 µM | – | –
CC[C@H](C)[C@H](N)C(=O)N[C@@H](CC(C)C)C(=O)N[C@@H](Cc1ccccc1)C(=O)N[C@@H](CCC(=O)O)C(=O)N[C@H](C(=O)N1CCC[C@H]1C(=O)N[C@@H](CCC(=O)O)C(=O)N[C@H](C(=O)N[C@H](C(=O)N[C@H](C(=O)N[C@@H](C)C(=O)N1CCC[C@H]1C(=O)N[C@H](C(=O)N[C@@H](Cc1c[nH]cn1)C(=O)N[C@H](C(=O)O)[C@@H](C)CC)C(C)C)C(C)C)[C@@H](C)O)C(C)C)C(C)C [Peptide 10, Ile-Leu-Phe-Glu-Val-Pro-Glu-Val-Thr-Val-Ala-Pro-Val-His-Ile] (H-ILFEVPEVTVAPVHI-OH; N-terminus and C-terminus assumed) | – | – | two orders of magnitude less potent than peptide 6 | Ki ([1]; hLE inhibitory activity range): 50 to 100 µM; Ki ([2]; hCG inhibitory activity range): 150 to 200 µM
CC[C@H](C)[C@H](N)C(=O)N[C@@H](CC(C)C)C(=O)N[C@H](C(=O)N[C@@H](Cc1ccccc1)C(=O)N[C@@H](Cc1c[nH]c2ccccc12)C(=O)N[C@@H](CO)C(=O)N[C@@H](CCCCN)C(=O)N[C@@H](CC(=O)O)C(=O)N[C@H](C(=O)NCC(=O)N[C@@H](Cc1ccc(O)cc1)C(=O)N[C@@H](CO)C(=O)N[C@@H](Cc1ccccc1)C(=O)N[C@H](C(=O)O)[C@@H](C)O)[C@@H](C)CC)[C@@H](C)CC [Peptide 11, Ile-Leu-Ile-Phe-Trp-Ser-Lys-Asp-Ile-Gly-Tyr-Ser-Phe-Thr] (H-ILIFWSKDIGYSFT-OH; N-terminus and C-terminus assumed) | – | – | dramatic loss | fold decrease in hLE inhibitory activity compared to peptide 6 ([1]; relative to peptide 6): around 20 fold; hCG inhibitory activity (in words) [2]: dramatic loss
